Target: T1, MERTK (cMER) A708S (Homo sapiens, UniProt Q12866, A708S)
T1 construct: purchased Thermo Fisher Scientific (Life Technologies) SelectScreen
Test: SelectScreen LanthaScreen
Format: binding
Details: read-out: % displacement
Protocol: The in vitro kinase selectivity of NU5455 was determined using the SelectScreen Broad Assay Panel (Thermo Fisher Scientific) involving activity and binding assays (Supplemental Table 1). […] Class IA PI3Ks were measured using the p85α subunit.
Kinase [ATP] % Assay Kinase [ATP] % Assay Kinase [ATP] % Assay Kinase [ATP] % Assay […]
FGR Km app 12.1 Z SRC N1 Km app 3.9 Z MERTK (cMER) A708S n/a 0.6 L RET M918T n/a -3.5 L […]
SGK (SGK1) Km app 8.5 Z MAP4K2 (GCK) Km app 2.7 Z TLK2 n/a -0.3 L STK38 (NDR) n/a -5.9 L
MERTK (cMER) Km app 8.3 Z CDK2/cyclin A Km app 2.7 Z TGFBR1 (ALK5) n/a -0.4 L MATK (HYL) Km app -6.3 Z
FYN Km app 8.3 Z EPHA1 Km app 2.7 Z CLK3 Km app -0.5 Z ABL1 E255K Km app -6.6 Z
TEC n/a 8.1 L CDK2/cyclin E1 n/a 2.7 L MAP3K14 (NIK) n/a -0.5 L STK17A (DRAK1) n/a -6.6 L
KIT V654A n/a 8.1 L TESK2 n/a 2.7 L AKT3 (PKB gamma) Km app -0.5 Z JAK2 JH1 JH2 Km app -6.7 Z
ROS1 Km app 8.0 Z SPHK1 Km app 2.7 A MAP3K9 (MLK1) Km app -0.5 Z PRKACB (PRKAC beta) n/a -6.8 L
FGFR3 K650E Km app 7.9 Z AMPK A2/B1/G1 Km app 2.6 Z IKBKB (IKK beta) Km app -0.6 Z PDGFRA (PDGFR alpha) Km app -6.8 Z
RAF1 (cRAF) Y340D Y341D 100 7.9 Z DYRK3 Km app 2.6 Z CAMK2A (CaMKII alpha) Km app -0.6 Z NEK9 Km app -7.2 Z
PI4KA (PI4K alpha) 10 7.8 A CSNK1D (CK1 delta) Km app 2.6 Z PRKCB1 (PKC beta I) Km app -0.7 Z PDK1 Km app -7.3 Z
HIPK2 Km app 7.8 Z ACVR2A n/a 2.5 L TTK n/a -0.7 L RPS6KB1 (p70S6K) Km app -7.8 Z […]

T1 sequence (Q12866 21-999 A708S): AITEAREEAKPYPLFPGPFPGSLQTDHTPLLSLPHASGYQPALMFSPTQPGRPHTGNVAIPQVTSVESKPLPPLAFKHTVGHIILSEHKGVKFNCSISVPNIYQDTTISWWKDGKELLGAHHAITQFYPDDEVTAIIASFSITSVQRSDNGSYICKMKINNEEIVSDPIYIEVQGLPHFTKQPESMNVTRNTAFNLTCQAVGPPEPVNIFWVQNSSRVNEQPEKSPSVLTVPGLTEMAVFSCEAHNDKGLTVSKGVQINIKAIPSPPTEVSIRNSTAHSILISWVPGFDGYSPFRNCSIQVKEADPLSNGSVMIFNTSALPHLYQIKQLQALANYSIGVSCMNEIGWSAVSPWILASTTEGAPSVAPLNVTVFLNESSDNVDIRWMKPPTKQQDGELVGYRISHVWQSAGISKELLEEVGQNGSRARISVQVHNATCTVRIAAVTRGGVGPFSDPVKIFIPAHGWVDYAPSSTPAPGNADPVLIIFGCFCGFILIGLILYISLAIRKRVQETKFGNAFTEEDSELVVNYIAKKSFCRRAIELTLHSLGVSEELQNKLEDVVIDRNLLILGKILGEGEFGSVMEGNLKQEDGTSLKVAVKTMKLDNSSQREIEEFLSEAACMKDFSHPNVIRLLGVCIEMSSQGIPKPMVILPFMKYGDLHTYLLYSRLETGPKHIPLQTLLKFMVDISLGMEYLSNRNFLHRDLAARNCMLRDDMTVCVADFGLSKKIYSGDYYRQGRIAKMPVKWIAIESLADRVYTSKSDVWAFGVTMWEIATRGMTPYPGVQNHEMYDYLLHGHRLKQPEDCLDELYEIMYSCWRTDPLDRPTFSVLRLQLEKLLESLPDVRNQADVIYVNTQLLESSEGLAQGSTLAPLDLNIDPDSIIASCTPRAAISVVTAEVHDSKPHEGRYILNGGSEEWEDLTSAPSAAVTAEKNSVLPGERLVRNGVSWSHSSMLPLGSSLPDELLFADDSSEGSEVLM

Question: With CN(C(=O)CN1CCOCC1)c1ccc2sc3c(-c4cccc5c(=O)cc(N6CC7CCC(C6)O7)oc45)cccc3c2c1 [NU5455] as the molecule, how does the inhibition at 1 µM read?
Answer: The inhibition at 1 µM was 0.6%.

Source: paper PMC6934184, “Selective DNA-PKcs inhibition extends the therapeutic index of localized radiotherapy and chemotherapy” (The Journal of Clinical Investigation, 2019)
